Source: ChEMBL document CHEMBL3885881, “DrugMatrix”

Species: Rattus norvegicus
Assay: DrugMatrix - Regimen: Daily Repeat
Type: toxicity, organism-based, Sprague-Dawley
Design: regimen Daily Repeat, gender Male, age 6-8 weeks
Conditions: in vivo, po, route oral GAVAGE, vehicle 100 % WATER; for ABSOLUTE BASOPHIL / ABSOLUTE EOSINOPHIL / ABSOLUTE LYMPHOCYTE / ABSOLUTE MONOCYTE / ABSOLUTE SEGMENTED NEUTROPHIL / BASOPHIL / EOSINOPHIL / ERYTHROCYTE COUNT / HEMATOCRIT / HEMOGLOBIN / LEUKOCYTE COUNT / LYMPHOCYTE / MEAN CORPUSCULAR HEMOGLOBIN / MEAN CORPUSCULAR HEMOGLOBIN CONCENTRATION / MEAN CORPUSCULAR VOLUME / MONOCYTE / NEUTROPHIL / NUCLEATED RED BLOOD CELLS / PLATELET COUNT: tissue Blood; for ALANINE AMINOTRANSFERASE / ALBUMIN / ALKALINE PHOSPHATASE / ASPARTATE AMINOTRANSFERASE / BLOOD UREA NITROGEN / CARBON DIOXIDE / CHLORIDE / CHOLESTEROL / CREATINE PHOSPHOKINASE / CREATININE / GLUCOSE / LACTATE DEHYDROGENASE / LIPASE / PHOSPHORUS / POTASSIUM / SODIUM / TOTAL BILIRUBIN / TOTAL PROTEIN / URIC ACID: tissue Plasma
[1] = 0 mg/kg, 72 h, dose level Control, time 3 day
[2] = 0 mg/kg, 120 h, dose level Control, time 5 day
[3] = 200 mg/kg, 72 h, dose level Low, time 3 day

CC(O)CO (centres undefined) [PROPYLENE GLYCOL]
ABSOLUTE BASOPHIL [1]: 0 CELLS/uL | ABSOLUTE EOSINOPHIL [1]: 40 CELLS/uL | ABSOLUTE LYMPHOCYTE [1]: 13599.5 CELLS/uL | ABSOLUTE MONOCYTE [1]: 239.33 CELLS/uL | ABSOLUTE SEGMENTED NEUTROPHIL [1]: 1021.17 CELLS/uL | BASOPHIL [1]: 0% | EOSINOPHIL [1]: 0.33% | ERYTHROCYTE COUNT [1]: 5.71 x10E6/uL | HEMATOCRIT [1]: 36.35% | HEMOGLOBIN [1]: 14.05 G/DL | LEUKOCYTE COUNT [1]: 14.9 x10E3/uL | LYMPHOCYTE [1]: 91% | MEAN CORPUSCULAR HEMOGLOBIN [1]: 24.62 pg | MEAN CORPUSCULAR HEMOGLOBIN CONCENTRATION [1]: 38.65 G/DL | MEAN CORPUSCULAR VOLUME [1]: 63.7 fL | MONOCYTE [1]: 1.5% | NEUTROPHIL [1]: 7.17% | NUCLEATED RED BLOOD CELLS [1]: 0.33 /100WBC | PLATELET COUNT [1]: 1225.5 x10E3/uL | ALANINE AMINOTRANSFERASE [1]: 48.5 u/L | ALBUMIN [1]: 4.18 G/DL | ALKALINE PHOSPHATASE [1]: 390.83 u/L | ASPARTATE AMINOTRANSFERASE [1]: 89 u/L | BLOOD UREA NITROGEN [1]: 14.83 mg/dL | CARBON DIOXIDE [1]: 24.83 mmol/L | CHLORIDE [1]: 100.83 MEQ/L | CHOLESTEROL [1]: 72.5 mg/dL | CREATINE PHOSPHOKINASE [1]: 503 u/L | CREATININE [1]: 0.2 mg/dL | GLUCOSE [1]: 163 mg/dL | LACTATE DEHYDROGENASE [1]: 316.83 u/L | LIPASE [1]: 9.83 u/L | PHOSPHORUS [1]: 11.57 mg/dL | POTASSIUM [1]: 6.16 MEQ/L | SODIUM [1]: 142.62 MEQ/L | TOTAL BILIRUBIN [1]: 0.2 mg/dL | TOTAL PROTEIN [1]: 5.8 G/DL | URIC ACID [1]: 1.65 mg/dL | ABSOLUTE BASOPHIL [2]: 0 CELLS/uL | ABSOLUTE EOSINOPHIL [2]: 21 CELLS/uL | ABSOLUTE LYMPHOCYTE [2]: 14288.5 CELLS/uL | ABSOLUTE MONOCYTE [2]: 205.33 CELLS/uL | ABSOLUTE SEGMENTED NEUTROPHIL [2]: 968.5 CELLS/uL | BASOPHIL [2]: 0% | EOSINOPHIL [2]: 0.17% | ERYTHROCYTE COUNT [2]: 5.83 x10E6/uL | HEMATOCRIT [2]: 36.53% | HEMOGLOBIN [2]: 14.4 G/DL | LEUKOCYTE COUNT [2]: 15.48 x10E3/uL | LYMPHOCYTE [2]: 92% | MEAN CORPUSCULAR HEMOGLOBIN [2]: 24.72 pg | MEAN CORPUSCULAR HEMOGLOBIN CONCENTRATION [2]: 39.43 G/DL | MEAN CORPUSCULAR VOLUME [2]: 62.68 fL | MONOCYTE [2]: 1.33% | NEUTROPHIL [2]: 6.5% | NUCLEATED RED BLOOD CELLS [2]: 0.17 /100WBC | PLATELET COUNT [2]: 1280.5 x10E3/uL | ALANINE AMINOTRANSFERASE [2]: 50 u/L | ALBUMIN [2]: 4.28 G/DL | ALKALINE PHOSPHATASE [2]: 380.17 u/L | ASPARTATE AMINOTRANSFERASE [2]: 82.67 u/L | BLOOD UREA NITROGEN [2]: 15.33 mg/dL | CARBON DIOXIDE [2]: 27.17 mmol/L | CHLORIDE [2]: 100.33 MEQ/L | CHOLESTEROL [2]: 60.67 mg/dL | CREATINE PHOSPHOKINASE [2]: 441.5 u/L | CREATININE [2]: 0.16 mg/dL | GLUCOSE [2]: 146 mg/dL | LACTATE DEHYDROGENASE [2]: 189.33 u/L | LIPASE [2]: 9.17 u/L | PHOSPHORUS [2]: 11.67 mg/dL | POTASSIUM [2]: 6.86 MEQ/L | SODIUM [2]: 142.33 MEQ/L | TOTAL BILIRUBIN [2]: 0.2 mg/dL | TOTAL PROTEIN [2]: 6.12 G/DL | URIC ACID [2]: 1.82 mg/dL | ABSOLUTE BASOPHIL [3]: 0 CELLS/uL | ABSOLUTE EOSINOPHIL [3]: 56 CELLS/uL | ABSOLUTE LYMPHOCYTE [3]: 15882 CELLS/uL | ABSOLUTE MONOCYTE [3]: 135.33 CELLS/uL | ABSOLUTE SEGMENTED NEUTROPHIL [3]: 1393.33 CELLS/uL | BASOPHIL [3]: 0% | EOSINOPHIL [3]: 0.33% | ERYTHROCYTE COUNT [3]: 5.52 x10E6/uL | HEMATOCRIT [3]: 35.37% | HEMOGLOBIN [3]: 13.53 G/DL | LEUKOCYTE COUNT [3]: 17.47 x10E3/uL | LYMPHOCYTE [3]: 90.67% | MEAN CORPUSCULAR HEMOGLOBIN [3]: 24.5 pg | MEAN CORPUSCULAR HEMOGLOBIN CONCENTRATION [3]: 38.27 G/DL | MEAN CORPUSCULAR VOLUME [3]: 64.1 fL | MONOCYTE [3]: 0.67% | NEUTROPHIL [3]: 8.33% | NUCLEATED RED BLOOD CELLS [3]: 0.33 /100WBC | PLATELET COUNT [3]: 1345.33 x10E3/uL | ALANINE AMINOTRANSFERASE [3]: 59 u/L | ALBUMIN [3]: 4.47 G/DL | ALKALINE PHOSPHATASE [3]: 378.33 u/L | ASPARTATE AMINOTRANSFERASE [3]: 90.33 u/L | BLOOD UREA NITROGEN [3]: 16.33 mg/dL | CARBON DIOXIDE [3]: 27.33 mmol/L | CHLORIDE [3]: 99.67 MEQ/L | CHOLESTEROL [3]: 81.33 mg/dL | CREATINE PHOSPHOKINASE [3]: 318 u/L | CREATININE [3]: 0.22 mg/dL | GLUCOSE [3]: 153.67 mg/dL | LACTATE DEHYDROGENASE [3]: 212.33 u/L | LIPASE [3]: 9 u/L | PHOSPHORUS [3]: 13.4 mg/dL | POTASSIUM [3]: 7.26 MEQ/L | SODIUM [3]: 145.23 MEQ/L | TOTAL BILIRUBIN [3]: 0.2 mg/dL | TOTAL PROTEIN [3]: 6.13 G/DL | URIC ACID [3]: 2.2 mg/dL
